Assay results: PubChem BioAssay (NCI)
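All cell lines were grown in 96-well plates and treated with compound for 48 hours. Definition used: TGI = concentration required for complete inhibition of growth.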

Assays:
Assay in all cases: NCI tumour cell line growth inhibition, 48 h
786-0 renal = tested on: 786-0 renal
A498 renal = tested on: A498 renal
A549 NSCLC = tested on: A549 NSCLC
ACHN renal = tested on: ACHN renal
BT-549 breast = tested on: BT-549 breast
CAKI-1 renal = tested on: CAKI-1 renal
CCRF-CEM leukemia = tested on: CCRF-CEM leukemia
COLO 205 colon = tested on: COLO 205 colon
DU-145 prostate = tested on: DU-145 prostate
EKVX NSCLC = tested on: EKVX NSCLC
HCC-2998 colon = tested on: HCC-2998 colon
HCT-116 colon = tested on: HCT-116 colon
HCT-15 colon = tested on: HCT-15 colon
HL-60(TB) leukemia = tested on: HL-60(TB) leukemia
HOP-62 NSCLC = tested on: HOP-62 NSCLC
HOP-92 NSCLC = tested on: HOP-92 NSCLC
HS 578T breast = tested on: HS 578T breast
HT29 colon = tested on: HT29 colon
IGROV1 ovarian = tested on: IGROV1 ovarian
K-562 leukemia = tested on: K-562 leukemia
KM12 colon = tested on: KM12 colon
LOX IMVI melanoma = tested on: LOX IMVI melanoma
M14 melanoma = tested on: M14 melanoma
MALME-3M melanoma = tested on: MALME-3M melanoma
MCF7 breast = tested on: MCF7 breast
MDA-MB-231 breast = tested on: MDA-MB-231 breast
MDA-MB-435 = tested on: MDA-MB-435
MDA-N = tested on: MDA-N
NCI-H226 lung = tested on: NCI-H226 lung
NCI-H23 lung = tested on: NCI-H23 lung
NCI-H460 lung = tested on: NCI-H460 lung
NCI-H522 lung = tested on: NCI-H522 lung
NCI/ADR-RES ovarian = tested on: NCI/ADR-RES ovarian
OVCAR-3 ovarian = tested on: OVCAR-3 ovarian
OVCAR-4 ovarian = tested on: OVCAR-4 ovarian
OVCAR-5 ovarian = tested on: OVCAR-5 ovarian
OVCAR-8 ovarian = tested on: OVCAR-8 ovarian
PC-3 prostate = tested on: PC-3 prostate
RPMI-8226 leukemia = tested on: RPMI-8226 leukemia
RXF 393 renal = tested on: RXF 393 renal
SF-268 CNS = tested on: SF-268 CNS
SF-295 CNS = tested on: SF-295 CNS
SF-539 CNS = tested on: SF-539 CNS
SK-MEL-2 melanoma = tested on: SK-MEL-2 melanoma
SK-MEL-28 melanoma = tested on: SK-MEL-28 melanoma
SK-MEL-5 melanoma = tested on: SK-MEL-5 melanoma
SK-OV-3 ovarian = tested on: SK-OV-3 ovarian
SN12C renal = tested on: SN12C renal
SNB-19 CNS = tested on: SNB-19 CNS
SNB-75 CNS = tested on: SNB-75 CNS
SR leukemia = tested on: SR leukemia
SW-620 colon = tested on: SW-620 colon
T-47D breast = tested on: T-47D breast
TK-10 renal = tested on: TK-10 renal
U251 CNS = tested on: U251 CNS
UACC-257 melanoma = tested on: UACC-257 melanoma
UACC-62 melanoma = tested on: UACC-62 melanoma
UO-31 renal = tested on: UO-31 renal
MOLT-4 leukemia = tested on: MOLT-4 leukemia

Clc1ccccc1/C=C/c1ccnc2ccccc12
TGI (786-0 renal): 29.2 µM
TGI (A498 renal): 33.1 µM
TGI (A549 NSCLC): 29.9 µM
TGI (ACHN renal): 30.1 µM
TGI (BT-549 breast): 29 µM
TGI (CAKI-1 renal): 30.5 µM
TGI (CCRF-CEM leukemia): 50.3 µM
TGI (COLO 205 colon): 26.7 µM
TGI (DU-145 prostate): 29 µM
TGI (EKVX NSCLC): 17.9 µM
TGI (HCC-2998 colon): 32.2 µM
TGI (HCT-116 colon): 29.1 µM
TGI (HCT-15 colon): 28.1 µM
TGI (HL-60(TB) leukemia): 45 µM
TGI (HOP-62 NSCLC): 31.9 µM
TGI (HOP-92 NSCLC): 24.2 µM
TGI (HS 578T breast): 53 µM
TGI (HT29 colon): 29.8 µM
TGI (IGROV1 ovarian): 32.7 µM
TGI (K-562 leukemia): 38.6 µM
TGI (KM12 colon): 31.6 µM
TGI (LOX IMVI melanoma): 35.2 µM
TGI (M14 melanoma): 32.1 µM
TGI (MALME-3M melanoma): 35.4 µM
TGI (MCF7 breast): 26.7 µM
TGI (MDA-MB-231 breast): 41.9 µM
TGI (MDA-MB-435): 29.2 µM
TGI (MDA-N): 27.7 µM
TGI (NCI-H226 lung): 33.3 µM
TGI (NCI-H23 lung): 27.5 µM
TGI (NCI-H460 lung): 31.7 µM
TGI (NCI-H522 lung): 31.7 µM
TGI (NCI/ADR-RES ovarian): 32.9 µM
TGI (OVCAR-3 ovarian): 28 µM
TGI (OVCAR-4 ovarian): 31.3 µM
TGI (OVCAR-5 ovarian): 34.5 µM
TGI (OVCAR-8 ovarian): 36.3 µM
TGI (PC-3 prostate): 30.6 µM
TGI (RPMI-8226 leukemia): 36.3 µM
TGI (RXF 393 renal): 31 µM
TGI (SF-268 CNS): 40.2 µM
TGI (SF-295 CNS): 29.2 µM
TGI (SF-539 CNS): 34.9 µM
TGI (SK-MEL-2 melanoma): 34.2 µM
TGI (SK-MEL-28 melanoma): 34.9 µM
TGI (SK-MEL-5 melanoma): 28.4 µM
TGI (SK-OV-3 ovarian): 32.8 µM
TGI (SN12C renal): 30.1 µM
TGI (SNB-19 CNS): 31.3 µM
TGI (SNB-75 CNS): 29 µM
TGI (SR leukemia): 46.8 µM
TGI (SW-620 colon): 35.6 µM
TGI (T-47D breast): 30.2 µM
TGI (TK-10 renal): 32.1 µM
TGI (U251 CNS): 31.4 µM
TGI (UACC-257 melanoma): 28.5 µM
TGI (UACC-62 melanoma): 29 µM
TGI (UO-31 renal): 31 µM

Cc1[nH]c(=O)nc2nc3ccc(Cl)cc3c(N(CCO)CCO)c12
TGI (786-0 renal): > 100 µM
TGI (A498 renal): > 100 µM
TGI (A549 NSCLC): > 100 µM
TGI (ACHN renal): > 100 µM
TGI (BT-549 breast): > 100 µM
TGI (CAKI-1 renal): > 100 µM
TGI (CCRF-CEM leukemia): > 100 µM
TGI (COLO 205 colon): > 100 µM
TGI (DU-145 prostate): > 100 µM
TGI (EKVX NSCLC): > 100 µM
TGI (HCC-2998 colon): > 100 µM
TGI (HCT-116 colon): > 100 µM
TGI (HCT-15 colon): > 100 µM
TGI (HL-60(TB) leukemia): > 100 µM
TGI (HOP-62 NSCLC): > 100 µM
TGI (HOP-92 NSCLC): > 100 µM
TGI (HS 578T breast): > 100 µM
TGI (HT29 colon): > 100 µM
TGI (IGROV1 ovarian): > 100 µM
TGI (K-562 leukemia): > 100 µM
TGI (KM12 colon): > 100 µM
TGI (LOX IMVI melanoma): > 100 µM
TGI (M14 melanoma): > 100 µM
TGI (MALME-3M melanoma): > 100 µM
TGI (MCF7 breast): > 100 µM
TGI (MDA-MB-231 breast): > 100 µM
TGI (MDA-MB-435): > 100 µM
TGI (MDA-N): > 100 µM
TGI (MOLT-4 leukemia): > 100 µM
TGI (NCI-H226 lung): > 100 µM
TGI (NCI-H23 lung): > 100 µM
TGI (NCI-H460 lung): > 100 µM
TGI (NCI-H522 lung): 48 µM
TGI (NCI/ADR-RES ovarian): > 100 µM
TGI (OVCAR-3 ovarian): > 100 µM
TGI (OVCAR-4 ovarian): > 100 µM
TGI (OVCAR-5 ovarian): > 100 µM
TGI (OVCAR-8 ovarian): > 100 µM
TGI (PC-3 prostate): > 100 µM
TGI (RPMI-8226 leukemia): > 100 µM
TGI (RXF 393 renal): > 100 µM
TGI (SF-268 CNS): > 100 µM
TGI (SF-295 CNS): > 100 µM
TGI (SF-539 CNS): > 100 µM
TGI (SK-MEL-2 melanoma): > 100 µM
TGI (SK-MEL-28 melanoma): > 100 µM
TGI (SK-MEL-5 melanoma): > 100 µM
TGI (SK-OV-3 ovarian): > 100 µM
TGI (SN12C renal): > 100 µM
TGI (SNB-19 CNS): > 100 µM
TGI (SR leukemia): > 100 µM
TGI (SW-620 colon): > 100 µM
TGI (T-47D breast): > 100 µM
TGI (TK-10 renal): > 100 µM
TGI (U251 CNS): > 100 µM
TGI (UACC-257 melanoma): > 100 µM
TGI (UACC-62 melanoma): > 100 µM
TGI (UO-31 renal): > 100 µM
